Here are results for six compounds from patent EP0089900B1, “New N-((2-oxo-1-pyrrolidinyl)acetyl)piperazines, the methods of producing such new compounds and their salts as well as pharmaceutical preparations for therapeutic use containing these compounds or salts” (PRODES S.A., priority 1982, dated 1983).

SMILES strings stand for the structures.

One series has as its system anesthetized dogs. In words: Electromagnetic blood flow measurement (vertebral/cerebral blood flow). It counts as in vivo. The following applies: vertebral blood flow, administration via saphenous vein. The protocol:
After orotraqueal intubation, artificial respiration with normal air was instituted using a Manley Pul- movent respirator. The correct ventilation of the dogs was checked after all the surgical procedures by determining the pO2, pCO2 and pH in arterial blood samples, as well as several times during the experiment by means of an Astrup apparatus. Blood pressure (4) was measured in left saphenous artery by means of a Bell & Howell pressure transducer, and the heart rate by means of a Beckman ECG device.
Recordings were made on an ink-writing Beckman polygraph. Left saphenous vein and right saphenous artery were canulated with polyethylene catheters for drug administration and blood collection respectively.
Vertebral blood flow was measured by a non-cannulating electromagnetic flowmeter (Carolina Medical Electronics) placed in the vertebral artery.
The Carolina digital flowmeter was connected to an Omniscribe Houston Instruments plotter.
Piracetam and nicotinic acid were used as control drugs.

The subject of series [1] is animals. The series can be described thus: Protection against lethality: hypoxia-hypobara (decompression), survival time. It counts as in vivo.
Another series relates to mouse. In words: Protection against lethality: quick decapitation, gasping time. The class given is in vivo. The following applies: gasping time after decapitation of mouse.
Series [2] deals with animals. The series can be described thus: Protection against lethality: anoxia by CNK, survival time. It counts as in vivo.
A short description of the next series: Acute toxicity LD50. The following applies: in vivo; species and route not given.

Broadly, the LD50 is the dose at which mortality reaches 50%. Higher therefore signals lower toxicity.

Source text for mouse: The second trial is the quick decapitation of mouse. The head has a typical mandibular movement, known as gasping, as searching the breathing air.

As to `NC(=O)CN1CCCC1=O` [(2-oxo-1-pyrrolidinyl)acetamide, reference compound], in the series with anesthetized dogs (no dose given), the effect result was “No effect”. Besides, the hypoxia hypobara entry in the series with animals [1] (dose 1000 mg/kg) is “No effect”. Moreover, the gasping entry in the series with mouse (dose 1000 mg/kg) is “No effect”. Further, the “anoxia by CNK” value with animals [2] (dose 1000 mg/kg) is recorded as “No effect”.

Turning to `O=C1NC(=O)C(c2ccccc2)(c2ccccc2)N1` [Diphenylhydantoine, reference compound], the hypoxia hypobara result with animals [1] (dose 100 mg/kg) is listed as “Active”. For the same compound, the “anoxia by CNK” value in the series on animals [2] (dose 100 mg/kg) is “Active”.

Take `O=C(CN1CCCC1=O)N1CCN(CC=Cc2ccccc2)CC1` [N-[(2-oxo-1-pyrrolidinyl)-acetyl]-N'-cinnamylpiperazine]: the effect result in the series on anesthetized dogs (dose 2,5 mg/kg) is “Active”. In the series on animals [1] (dose 300 mg/kg), the hypoxia hypobara entry is on record as “Active”. Besides, the gasping entry with mouse (dose 300 mg/kg) is reported as “Active”. For the same compound, the “anoxia by CNK” value in the series on animals [2] (dose 300 mg/kg) is “Active”. In the series “Acute toxicity LD50”, this compound displayed a median lethal dose (LD50) of 1400 mg/kg.

Consider `COc1ccc(CN2CCN(C(=O)CN3CCCC3=O)CC2)cc1` [N-[(2-oxo-1-pyrrolidinyl)acetyl]-N'-(p-methoxybenzyl)piperazine], for which the effect entry with anesthetized dogs (dose 1 mg/kg) is listed as “Active”. Besides, in the series with animals [1] (dose 250 mg/kg), the hypoxia hypobara result is “Active”. In the series with mouse (dose 250 mg/kg), the gasping entry is listed as “Active”. For the same compound, the “anoxia by CNK” value in the series with animals [2] (dose 250 mg/kg) was “No effect”. Besides, the LD50 in “Acute toxicity LD50” was 1110 mg/kg.

Consider `C=CCN1CCN(C(=O)CN2CCCC2=O)CC1` [N-[(2-oxo-1-pyrrolidinyl)acetyl]-N'-allylpiperazine], for which the effect result in the series on anesthetized dogs (dose 2,5 mg/kg) is “Active”. In addition, the hypoxia hypobara entry in the series on animals [1] (dose 500 mg/kg) is reported as “Active”. Besides, the gasping result with mouse (dose 500 mg/kg) is given as “Active”. Besides, in the series with animals [2] (dose 500 mg/kg), the “anoxia by CNK” value is “Active”. The compound further yielded a median lethal dose (LD50) in the series “Acute toxicity LD50” of 4000 mg/kg.

Regarding `O=C(O)c1cccnc1` [Nicotinic acid, reference compound], in the series with anesthetized dogs (no dose given), the effect entry is recorded as “No effect”.
